Columns and labels:
DDR2 = assay: ASO screen in H4 neuroglioma cells, DDR2 knock-down; format: cell-based; conditions: ASO 10 nM and 100 nM in the screen
Experimental: (§1) Expression levels of DDR2, KANK2, and STOM were confirmed to have similar expression levels in the H4 neuroglioma cells (ATCC cat #HTB-148) and PSP brain homogenate (FIG. 27), and then ASOs described in Example 3 were screened for various characteristics in H4 cells. cDNA reverse transcription kits High-Capacity cDNA Reverse Transcription Kit (High-cap, Thermo Fisher Scientific, cat #4368814) and SuperScript™ IV VILO™ (VILO, Thermo Fisher Scientific, cat #11756050) were assessed. Both cDNA synthesis kits tested quantitatively reverse transcribed RNA into cDNA (FIG. 28). qPCR master mixes TaqMan™ Fast Advanced (Fast Advance, Thermo Fisher Scientific, cat #4444556) and TaqMan™ Universal PCR Master Mix (Universal, Thermo Fisher Scientific, cat #4364340) were assessed. Both qPCR master mixes quantitatively amplified cDNA and generated detectable signals (FIG. 29). Multiplexed qPCR assays were also performed. Duplexed gene quantification yielded similar results as singleton qPCR setups (FIG. 30). ASOs targeting PPIB were used as a positive control to confirm delivery of the ASOs to H4 cells and establish ASO screening parameters (FIG. 31).
(§2) ASOs described in Example 3 were screened in the H4 neuroglioma cells. Different concentrations of ASOs (10 nM and 100 nM) were administered and knock-down efficiency (measured by fold change of mRNA compared to non-targeting ASO treated controls) and ASO toxicity (measured by LDH assay) were determined (FIGS. 32A-32F).
(§3) Three ASO hits were selected for each target (DDR2: D4, D5, D9; KANK2: K4, K5, K10; STOM: S1, S4, S10). The knock-down efficiency (mRNA change) and ASO safety (cell toxicity as measured by LDH assay and viability as measured by XTT assay) were repeated/performed to validate the hits, as shown in FIG. 33A-33C.
(§4) Knock-down was assessed by measuring polypeptide levels (FIGS. 35, 40, 41) using western Blot.

KANK2 = assay: ASO screen in H4 neuroglioma cells, KANK2 knock-down; format: cell-based; conditions: ASO 10 nM and 100 nM in the screen
Experimental: as §1, §2, §3, §4

STOM = assay: ASO screen in H4 neuroglioma cells, STOM knock-down; format: cell-based; conditions: ASO 10 nM and 100 nM in the screen
Experimental: as §1, §2, §3, §4

DDR2 mRNA [1] = assay: ASO D5 target engagement in iPSC-derived astrocytes; format: cell-based
Experimental: (§5) Induced pluripotent stem cells (iPSCs) were examined as a model to assess target engagement of the ASO D5 (targeting DDR2). […] ASO D5 was administered to iPSCs-derived astrocytes and neurons separately following the schematic depicted in FIGS. 38-39.

DDR2 mRNA [2] = assay: ASO D5 target engagement in iPSC-derived neurons; format: cell-based
Experimental: as §5

[3] = system: GMR>Tau Drosophila (tau-mediated eye degeneration); assay: Dasatinib in Drosophila tau eye degeneration model; format: in vivo, Drosophila melanogaster; conditions: fly food with dasatinib 1 μM or 10 μM vs DMSO 0.5%; flies aged 5 days; blinded eye score

Molecule | knock-down efficiency of DDR2 (fold change of mRNA compared to non-targeting ASO; polypeptide by western blot) (DDR2) | knock-down efficiency of KANK2 (fold change of mRNA compared to non-targeting ASO; polypeptide by western blot) (KANK2) | knock-down efficiency of STOM (fold change of mRNA compared to non-targeting ASO; polypeptide by western blot) (STOM) | further results
D4: ASO targeting DDR2, ACAGAGTCAGGACAAATGGC, 2'-MOE wings, phosphorothioate bonds (all phosphorothioate, sugars by position and methylation of C not given here; 2'-MOE wings) | hits | – | – | –
K10: ASO targeting KANK2, CGTCCTGTCTTGCTTTGTCT, 2'-MOE wings, phosphorothioate bonds (all phosphorothioate, sugars by position and methylation of C not given here; 2'-MOE wings) | – | hits | – | –
K5: ASO targeting KANK2, CCCTCAGACACCCACAATTA, 2'-MOE wings, phosphorothioate bonds (all phosphorothioate, sugars by position and methylation of C not given here; 2'-MOE wings) | – | hits | – | –
S10: ASO targeting STOM, ACACGCTCCACCTTTATTCC, 2'-MOE wings, phosphorothioate bonds (all phosphorothioate, sugars by position and methylation of C not given here; 2'-MOE wings) | – | – | hits | –
K4: ASO targeting KANK2, GCAAGCCAGTCTACATCAAG, 2'-MOE wings, phosphorothioate bonds (all phosphorothioate, sugars by position and methylation of C not given here; 2'-MOE wings) | – | hits | – | –
D5: ASO targeting DDR2, CACTCTTGCAGCAGACATTC, 2'-MOE wings, phosphorothioate bonds (all phosphorothioate, sugars by position and methylation of C not given here; 2'-MOE wings) | hits | – | – | DDR2 mRNA (DDR2 mRNA [1]): reduced DDR2 mRNA; DDR2 mRNA (DDR2 mRNA [2]): reduced DDR2 mRNA
S1: ASO targeting STOM, GGACTACGAATTCACAAGGC, 2'-MOE wings, phosphorothioate bonds (all phosphorothioate, sugars by position and methylation of C not given here; 2'-MOE wings) | – | – | hits | –
S4: ASO targeting STOM, GCAATGGTGGTCAGTGTCTG, 2'-MOE wings, phosphorothioate bonds (all phosphorothioate, sugars by position and methylation of C not given here; 2'-MOE wings) | – | – | hits | –
D9: ASO targeting DDR2, CTGCTCATTCCAAAGTCAGC, 2'-MOE wings, phosphorothioate bonds (all phosphorothioate, sugars by position and methylation of C not given here; 2'-MOE wings) | hits | – | – | –
Cc1nc(Nc2ncc(C(=O)Nc3c(C)cccc3Cl)s2)cc(N2CCN(CCO)CC2)n1 [dasatinib] | – | – | – | tau-mediated eye degeneration [3]: dosage-dependent reduction

— US20260284095A1 (Mayo Foundation for Medical Education and Research, priority 2023, published 2026)
